Values of other authors in patent US20180333352A1, “TOPICAL FORMULATIONS AND USES THEREOF” (SUN PHARMA GLOBAL FZE, priority 2015, published 2018).

Experiments:
[1] = tested on: T-cell adhesion to ICAM-1 expressing cells; conditions: in vitro
[2] = tested on: IFNγ, TNFα, IL-2; conditions: in vitro

| Solubility in ethyl alcohol and methyl alcohol (ethyl alcohol, methyl alcohol) | Solubility in water (water) | SMILES | T-cell adhesion to ICAM-1 expressing cells [1] | Secretion of key inflammatory cytokines (IFNγ, TNFα, IL-2) [2] |
| --- | --- | --- | --- | --- |
| very soluble | only slightly soluble | CCNC(=O)CCC/C=C\C[C@@H]1[C@@H](/C=C/[C@@H](O)CCc2ccccc2)[C@H](O)C[C@@H]1O [Bimatoprost, (Z)-7-[(1R,2R,3R,5 S)-3,5-Dihydroxy-2 [(1E,3S)-3-hydroxy-5-phenyl-1-pentenyl]cyclopentyl]-5-N-ethylheptenamide] |  |  |
|  |  | CS(=O)(=O)c1cccc(C[C@H](NC(=O)c2c(Cl)cc3c(c2Cl)CCN(C(=O)c2ccc4ccoc4c2)C3)C(=O)O)c1 [lifitegrast] | inhibits | inhibits |
